Measurements published in ChEMBL document CHEMBL3988442, “University of Dundee, Small-Polar-MMV Screening Library” (2021).
Values joined by “and” are separate entries in the source; they are usually repeats but may differ in a detail not shown here. Equal values may be shown once.

Molecular target: T1, Coenzyme A biosynthesis bifunctional protein CoaBC (Mycobacterium tuberculosis (strain ATCC 25618 / H37Rv), UniProt P9WNZ1)
T1 sequence (P9WNZ1 whole entry): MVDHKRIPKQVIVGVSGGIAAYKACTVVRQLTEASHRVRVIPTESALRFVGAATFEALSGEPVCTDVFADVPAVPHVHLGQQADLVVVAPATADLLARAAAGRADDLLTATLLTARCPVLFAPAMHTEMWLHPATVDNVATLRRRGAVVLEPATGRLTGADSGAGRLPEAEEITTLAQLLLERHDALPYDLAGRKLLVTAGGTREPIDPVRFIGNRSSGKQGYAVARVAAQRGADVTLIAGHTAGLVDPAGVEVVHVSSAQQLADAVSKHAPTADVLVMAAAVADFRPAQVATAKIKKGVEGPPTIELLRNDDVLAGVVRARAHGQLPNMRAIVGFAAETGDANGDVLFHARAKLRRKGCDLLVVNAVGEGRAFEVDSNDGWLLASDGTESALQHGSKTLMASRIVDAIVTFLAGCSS
Experiment: Biomol Green assay for MtCoaBC inhibitor, OD650 read
Type: functional

| SMILES | IC50 |
| --- | --- |
| O=C(CCNc1ncccn1)Nc1ccc(Cn2cncn2)cc1 | > 30.2 µM |
| CCC1CCCCN1C(=O)Cn1nc(-c2ccc(C)o2)cc(N)c1=O (stereo not given) | > 50.1 µM |
| Cc1cc(C2CCCN(CCNS(=O)(=O)c3ccccc3)C2)n[nH]1 (stereo not given) | > 30.2 µM |
| CCc1cnc(CN(C)C2CCN(CCCNS(C)(=O)=O)C2)o1 (stereo not given) | > 30.2 µM |
| Cc1ncnc2c1CCN(C(=O)c1ccoc1)CC2 | > 30.2 µM |
| O=C(CN1CC(n2cccn2)C1)NCCC1=CCCCC1 | > 30.2 µM |
| COc1ccc(CN2CCC3(CCCN(C)C3=O)C2)c(OC)c1C (stereo not given) | > 30.2 µM |
| Cc1cc(NC(=O)CN2CCc3cnc(C(C)C)nc3C2)on1 | > 30.2 µM |
| COc1ccccc1CC(C)CC(=O)NC(C)C (stereo not given) | > 30.2 µM |
| COc1ccccc1OCC(=O)NS(=O)(=O)c1cccnc1 | > 30.2 µM |
| CC1c2ncc(Cn3cncn3)n2CCN1C(=O)c1ccsc1 (stereo not given) | > 30.2 µM |
| Cc1nc(C2CCCN(C(=O)c3ccc(Cl)cn3)C2)no1 (stereo not given) | > 30.2 µM |
| COc1ccccc1N1CCN(CC(=O)NC(C)c2ccco2)CC1 (stereo not given) | > 30.2 µM |
| Cn1nccc1-c1ccc2nc(C3CCN(CC4CC4)CC3)nn2c1 | > 30.2 µM |
| CC(=O)Nc1ccc(Oc2cccc(CN3CCCC3)c2)cc1 | > 50.1 µM |
| NC(=O)c1cc2c(nc1Oc1cccc(CN3CCCC3)c1F)CCC2 | > 30.2 µM |
| CCn1cc(CN(C)Cc2cnn(-c3ccc(F)cc3)c2)cn1 | > 30.2 µM |
| COc1ccc(CC(=O)Nc2ccc3ncn(C(C)C)c(=O)c3c2)cc1 | > 30.2 µM |
| Cc1cnc(NC(=O)C(C)Oc2ccc3c(c2)OCO3)s1 (stereo not given) | > 30.2 µM |
| Cc1nn(CC(=O)N2CCN(c3ncccn3)CC2)c(C)c1Cl | > 30.2 µM |
| CCc1nccn1CC1CCCN1S(=O)(=O)Cc1ccccc1 (stereo not given) | > 30.2 µM |
| Nc1nccnc1CC1CCCN(Cc2c[nH]c3ccccc23)C1 (stereo not given) | > 30.2 µM |
| CCc1nc(C)c(CN2CCCC(c3nn(C)c(=O)n3CC)C2)[nH]1 (stereo not given) | > 30.2 µM |

| SMILES | IC50 |
| --- | --- |
| NC(=O)N1CCC2(CC1)CN(c1ccsc1)C(=O)CO2 | > 30.2 µM |
| Cc1noc(C)c1CN1CCn2cc(CNc3ccccn3)nc2C1 | > 30.2 µM |
| COc1ccccc1CNC(=O)N1CCN(Cc2cc(C)on2)CC1 | > 30.2 µM |
| Cc1nn(C)cc1S(=O)(=O)N[C@@H]1CCC[C@@H](N2CCCC2)[C@@H]1O | > 30.2 µM |
| COCCC(Cc1cccc(Br)c1)C(=O)O (stereo not given) | > 50.1 µM |
| O=C([C@H]1C[C@@H]2CCN(c3cccc(F)c3)C[C@H]2O1)N1CCCC1 | > 30.2 µM |
| CC1COCCN1C(=O)Cc1cc(Cl)c2c(c1)OCCO2 (stereo not given) | > 30.2 µM |
| CCCn1cc(CN2CCOCC2c2[nH]ncc2C)cn1 (stereo not given) | > 30.2 µM |
| OCCN(Cc1ccncc1)CC1(c2ccc(Cl)cc2)CCCC1 | > 30.2 µM |
| CCOCC1CN(Cc2ccoc2)Cc2cn(CC3CC3)nc21 (stereo not given) | > 30.2 µM |
| CN1CCOC[C@H]1c1nc(-c2ccc(F)cc2F)c[nH]1 | > 30.2 µM |
| CN1CCCC1c1ccc(N2CCOCC2)cn1 (stereo not given) | > 30.2 µM |
| COc1c(C)cc(CNCc2ccnc(N3CCOCC3)c2)cc1C | > 30.2 µM |
| CC1(C)CN(CCC(=O)NCc2cccc(Cl)c2)CC[C@]1(C)O | > 30.2 µM |
| CCn1nc(C)c(-c2cncn2Cc2ccccc2CN(C)C)c1C | > 30.2 µM |
| CS(=O)(=O)c1ccc(-c2c[nH]c([C@@H]3COCCN3)n2)cc1 | > 30.2 µM |
| Cc1cccc(-c2cc(C(=O)O)sn2)c1 | > 50.1 µM |
| CC(NC(=O)CNC(=O)OC(C)(C)C)c1ccc(Cl)s1 (stereo not given) | > 30.2 µM |
| O=C(Cc1cccc2ccccc12)N1CCC(Nc2cccnn2)CC1 | > 30.2 µM |
| CC(C)NC(=O)[C@@H]1C[C@H](N)CN1C(=O)C1(c2ccc(Cl)cc2)CCC1 | > 30.2 µM |
| Cc1nc(Nc2nnc(C)s2)cc(C2CCCN2C)n1 (stereo not given) | > 30.2 µM |
| O=C(NCc1nc(NC2CCCC2)c2cc(Cl)ccc2n1)c1ccoc1 | > 30.2 µM |
| COc1cccc2cc(CNCc3ccc(N4CCCC4)nc3)oc12 | > 30.2 µM |

| SMILES | IC50 |
| --- | --- |
| O=c1c2ccccc2nc2n1CCC2O (stereo not given) | > 30.2 µM |
| Cc1nc(C2CCCN(C(=O)c3c(C)nn4cccnc34)C2)no1 (stereo not given) | > 30.2 µM |
| O=c1oc2ccccc2n1CCCN1CCCC1c1ccc(O)cc1 (stereo not given) | > 30.2 µM |
| COC(=O)c1cccc2nc([C@H]3CCN(Cc4ccccc4)C3)oc12 | > 30.2 µM |
| Cc1n[nH]c(C)c1NC(=O)CN1CCN(c2nccs2)C(C)C1 (stereo not given) | > 30.2 µM |
| COc1c(C2CCCN2CC(=O)Nc2nccs2)c(C)nn1C (stereo not given) | > 30.2 µM |
| COc1ccc(CNC(=O)NC(C)(CO)C2CC2)c(C(F)(F)F)c1 (stereo not given) | > 30.2 µM |
| Cc1ccc(CNC(=O)COc2ccc3c(c2)OCC3O)cc1 (stereo not given) | > 30.2 µM |
| COCCNC(=O)[C@H]1C[C@@H]2CCN(c3ccccc3)C[C@H]2O1 | > 30.2 µM |
| Cc1ccc(S(=O)(=O)NC[C@H]2OC[C@@H](NCc3cccs3)[C@@H]2O)cc1 | > 30.2 µM |
| COc1ccccc1N1CCC(CNCc2ccc(C#N)cc2)C1 (stereo not given) | > 30.2 µM |
| CC(C(=O)Nc1ccc(N2CCCCC2)nc1)n1cncn1 (stereo not given) | > 30.2 µM |
| CN(C)Cc1cccc(-c2cccnc2C(=O)NCc2cn(C)cn2)c1 | > 30.2 µM |
| COc1ccc(NC2CCCN(Cc3cnc(N(C)C)s3)C2)cc1OC (stereo not given) | > 30.2 µM |
| COc1c(-c2ccc(O)cc2)oc2cc(O)cc(O)c2c1=O [ISOKAEMPFERIDE] | > 30.2 µM |
| COCCN1CC(C(=O)N(CCN(C)C)Cc2ccc(C)s2)CC1=O (stereo not given) | > 30.2 µM |
| C1=C(CNC2CCc3ncnn3C2)COc2ccccc21 (stereo not given) | > 30.2 µM |
| Cc1ccnc(N2C[C@@H]3CC[C@H](C2)N(CC2CCC2)C3=O)n1 | > 30.2 µM |
| Cc1ccc(C)c(CC(=O)NC2(C#N)CCOCC2)c1 | > 30.2 µM |
| O=C(c1ccc(-n2cnnn2)cc1)N1CCCC(n2ccnc2)C1 (stereo not given) | > 30.2 µM |
| Cc1cs/c(=N\C(=O)Cn2nc(N3CCOCC3)ccc2=O)[nH]1 | > 30.2 µM |
| CC(C)CN1C[C@@H]2OCC(=O)N(c3ccccc3)[C@@H]2C1 | > 30.2 µM |
| Clc1cccc(Cl)c1CN(CCCN1CCOCC1)Cc1cccnc1 | > 30.2 µM |

| SMILES | IC50 |
| --- | --- |
| Cc1csc(CN2CCC(C(=O)O)(n3ccc(-c4ccco4)n3)CC2)n1 | > 30.2 µM |
| CNc1cc(C)nc(C2CCN(CCO)CC2)n1 | > 30.2 µM |
| COc1cccc(N2CCN(C(=O)C(C)Oc3ccccc3)CC2=O)c1 (stereo not given) | > 30.2 µM |
| CN1C[C@@H](C(=O)N2CCCOCC2)[C@@]2(CCc3ccccc3C(=O)N2)C1 | > 30.2 µM |
| CC(NC(=O)Nc1cccnc1N1CCCC1)c1ccn(C)c1 (stereo not given) | > 30.2 µM |
| CCc1ncncc1C(=O)NCCNS(=O)(=O)c1ccccc1 | > 50.1 µM |
| CCc1nccn1-c1nccnc1C1CCN(C(=O)COC)CC1 | > 30.2 µM |
| NC(=O)CCNC(=O)C1(N2CCCCC2)Cc2ccccc2C1 | > 30.2 µM |
| CCn1ncc2c1NC(=O)CC2c1cnc(-c2ccccn2)nc1 (stereo not given) | > 30.2 µM |
| O=C(CN1CCN(C(=O)c2ccccc2)CC1)Nc1ncc(Br)cc1Br | > 30.2 µM |
| Cc1ccc(NC2CCN(C(=O)c3cnn(C(C)(C)C)c3)CC2)nn1 | > 50.1 µM |
| CCNC(=O)C1(Cc2cc(-c3ccccc3)no2)CCCN(C)C1 (stereo not given) | > 30.2 µM |
| COc1ccc(-c2nnsc2C(=O)N2CCC(C(N)=O)CC2)cc1 | > 30.2 µM |
| Cc1ccc(-n2c(O)cc(C)c(C#N)c2=O)c(C)c1 | > 30.2 µM |
| CC(C)c1[nH]c2ncccc2c1CN1CCC(O)CC1 | > 30.2 µM |
| CSCc1noc(CNC(=O)C2CCN(C(=O)C3CC3)CC2)n1 | > 30.2 µM |
| CN(Cc1ccc(F)cc1)C(=O)NCc1nnc2n1CCC2 | > 30.2 µM |
| Cc1csc(CCNCc2cnc3c(c2)c(C)nn3C)n1 | > 30.2 µM |
| O=C(NCc1ccccc1)C1CN(c2ccccn2)CCO1 (stereo not given) | > 30.2 µM |
| O=C(NCCc1ccccn1)c1n[nH]c2c1CCC2 | > 30.2 µM |
| O=C(CN1CCCC(c2ccn[nH]2)C1)Nc1nncs1 (stereo not given) | > 30.2 µM |
| CC(C)CCn1c(=O)n(CCn2cccc2)c2cc(C(=O)O)cnc21 | > 30.2 µM |
| CCC(c1ccncc1)N(C)S(C)(=O)=O (stereo not given) | > 30.2 µM |

| SMILES | IC50 |
| --- | --- |
| CN1CCc2nnc(C3CCCN3S(=O)(=O)c3ccc(F)cc3)n2CC1 (stereo not given) | > 30.2 µM |
| Cn1ncnc1NS(=O)(=O)c1ccc(F)cc1Cl | > 30.2 µM |
| CN1CCCC(CNC(=O)N(C)Cc2ccc(Cl)c(F)c2)C1 (stereo not given) | > 30.2 µM |
| O=C(O)C1CCN(c2nc3c(-c4ccccc4F)csc3c(=O)[nH]2)CC1 | > 30.2 µM |
| Cc1ccc(S(=O)(=O)Nc2ccc(N3CCSCC3)c(C(=O)O)c2)s1 | > 30.2 µM (2×) and 32.4 µM and 45.1 µM |
| Cc1nn(C)c(C)c1C1CCCN1C(=O)c1cnc2onc(C)c2c1 (stereo not given) | > 30.2 µM |
| CCC(CO)Nc1nc(C(F)F)nc2ccccc12 (stereo not given) | > 30.2 µM |
| COc1ccccc1CNC(=O)CS(=O)(=O)Cc1ccccc1 | > 30.2 µM |
| Cn1cccc1CN1CCc2ncnc(-c3cccnc3)c2CC1 | > 30.2 µM |
| CCc1ncc(C(=O)N2CC[C@@H]3CC[C@H](C2)N3C)cn1 | > 30.2 µM |
| CN(C)CC(=O)N1CCC2(CC1)CN(c1ccsc1)C(=O)CO2 | > 30.2 µM |
| Cc1nnc(CN(C)S(=O)(=O)c2ccc(Br)cc2Cl)n1C | > 30.2 µM |
| Cn1cc(CN2CCCC(c3nccnc3-c3cccc(F)c3)C2)cn1 (stereo not given) | > 30.2 µM |
| Cc1cnc2[nH]c(C(F)(F)F)c(CN3CCCC(CO)C3)c2c1 (stereo not given) | > 30.2 µM |
| CCCNC(=O)NC(C)c1ccccn1 (stereo not given) | > 30.2 µM |
| O=C1N(Cc2ccccn2)C[C@H]2CN(C3CCC3)CCN12 | > 30.2 µM |
| CS(=O)(=O)NC1CCN(C(=O)NCCc2ccccc2F)CC1 | > 30.2 µM |
| NS(=O)(=O)c1cc(C(=O)N2CCCCC2)cs1 | > 30.2 µM |
| COCC(=O)N1CCC(Oc2cccc(C)c2)CC1 | > 30.2 µM |
| COc1cc(O)cc2c1C(=O)CC(c1ccc(O)cc1)O2 (stereo not given) | > 30.2 µM |
| Cc1nn(C)c(Cl)c1C1CCCN1CC(=O)Nc1cccnc1 (stereo not given) | > 30.2 µM |
| O=C(NCC1CC1)[C@H]1C[C@@H]2CN(S(=O)(=O)Cc3ccccc3)C[C@H]1O2 | > 30.2 µM |
| CCc1ncc(C(=O)NCC2CCN(Cc3ccncc3)CC2)cn1 | > 30.2 µM |
